Measured values published in US20230159527A1, “COMPOUNDS AS BCL-2 INHIBITORS” (Fochon Pharmaceuticals, Ltd., priority 2020, published 2023).
pIC50: −log10 of the molar value.

These molecules were tested on Toledo cells (assay: Cell proliferation assay, Toledo cells (MTS, 72 h)). Details: Homo sapiens, Toledo cells, MTS, read-out: Toledo IC50.
Assay type: cell-based
Method: MTS testing kit was purchased from Promega (Madison, Wis., USA). The RPMI-1640, Fetal bovine serum and Penicillin-Streptomycin were purchased from BI (Biological Industries, Beit Haemek, Israel). Dimethyl sulfoxide (DMSO) was purchased from Sigma (St. Louis, Mo., USA). Toledo (ATCC catalog #: CRL-2631) cells were cultured in RPMI-1640 supplemented with Penicillin-Streptomycin and 10% FBS.
To investigate whether a compound is able to inhibit the activity of BCL-2 in cells, a mechanism-based assay using Toledo lines was developed. In this assay, the inhibition of BCL-2 was reflected by the inhibition of cell proliferation of Toledo cells. Cells were plated into 96-well plates at the optimized cell density of 30000 cells/well. Plates were incubated at 37° C., with 5% CO2 for 4h. Compounds were serially diluted and added to the plates with the final concentrations of 10000, 3333.3, 1111.1, 370.4, 123.5, 41.2, 13.7, 4.6 and 1.5 nM. Plates were incubated at 37° C., with 5% CO2 for 72 h. 20 μl MTS was added into each well and the plates were incubated at 37° C., with 5% CO2 for exactly 2 h. The absorbance was measured by a microplate reader at 490 nm. IC50 was calculated using GraphPad Prism 5.0 software.
Work on COCCNc1nc2[nH]ccc2cc1Oc1cc(N2CCC3(CC2)CC(N2CCC[C@H]2c2ccccc2C(C)C)C3)ccc1C(=O)NS(=O)(=O)c1cc2c(c([N+](=O)[O-])c1)N[C@@H]([C@H]1CC[C@](C)(O)CC1)CO2 (single isomer, unassigned) [Example D-56, N-(((S)-3-((1r,4S)-4-hydroxy-4-methylcyclohexyl)-5-nitro-3,4-dihydro-2H-benzo[b][1,4]oxazin-7-yl)sulfonyl)-4-(2-((R or S)-2-(2-isopropylphenyl)pyrrolidin-1-yl)-7-azaspiro[3.5]nonan-7-yl)-2-((6-((2-methoxyethyl)amino)-1H-pyrrolo[2,3-b]pyridin-5-yl)oxy)benzamide] yielded a pIC50 of 9.00.
Work on CC(C)c1ccccc1[C@@H]1CCCN1C1CC2(CCN(c3ccc(C(=O)NS(=O)(=O)c4cc5c(c([N+](=O)[O-])c4)N[C@@H]([C@H]4CC[C@](C)(O)CC4)CO5)c(Oc4cc5cc[nH]c5nc4OC(F)F)c3)CC2)C1 (single isomer, unassigned) [Example D-11, 2-((6-(difluoromethoxy)-1H-pyrrolo [2,3-b]pyridin-5-yl)oxy)-N-(((S)-3-((1r,4S)-4-hydroxy-4-methylcyclohexyl)-5-nitro-3,4-dihydro-2H-benzo[b][1,4]oxazin-7-yl)sulfonyl)-4-(2-((R or S)-2-(2-isopropylphenyl)pyrrolidin-1-yl)-7-azaspiro[3.5]nonan-7-yl)benzamide] yielded a pIC50 of 9.00.
Molecule CC(C)c1ccccc1[C@@H]1CCC[C@@H]1N1CC2(CCN(c3ccc(C(=O)NS(=O)(=O)c4cnc(NC[C@H]5CC[C@](C)(O)CC5)c([N+](=O)[O-])c4)c(Oc4cc5cc[nH]c5nc4Cl)c3)CC2)C1 (relative stereo) [Example A-159, 2-((6-chloro-1H-pyrrolo[2,3-b]pyridin-5-yl)oxy)-N-((6-((((1r,4r)-4-hydroxy-4-methylcyclohexyl)methyl)amino)-_ 5-nitropyridin-3-yl)sulfonyl)-4-(2-((1S,2S or 1R,2R)-2-(2-isopropylphenyl)cyclo-pentyl)-2,7-diazaspiro[3.5]nonan-7-yl) benzamide] has a pIC50 of 9.00.
In the case of CC(C)c1ccccc1[C@@H]1CCCN1C1CC2(CCN(c3ccc(C(=O)NS(=O)(=O)c4cc5c(c([N+](=O)[O-])c4)N[C@@H]([C@H]4CC[C@](C)(O)CC4)CO5)c(Oc4cc5c(F)c[nH]c5nc4Cl)c3)CC2)C1 (single isomer, unassigned) [Example D-84, 2-((6-chloro-3-fluoro-1H-pyrrolo [2,3-b]pyridin-5-yl)oxy)-N-(((S)-3-((1r,4S)-4-hydroxy-4-methylcyclohexyl)-5-nitro-3,4-dihydro-2H-benzo[b][1,4]oxazin-7-yl)sulfonyl)-4-(2-((R or S)-2-(2-isopropylphenyl)pyrrolidin-1-yl)-7-azaspiro[3.5]nonan-7-yl)benzamide], the pIC50 was 9.00.
In the case of Cc1nc2[nH]ccc2cc1Oc1cc(N2CCC3(CC2)CC(N2CCC[C@H]2c2ccccc2C(C)C)C3)ccc1C(=O)NS(=O)(=O)c1cc2c(c([N+](=O)[O-])c1)N[C@@H]([C@H]1CC[C@](C)(O)CC1)CO2 (single isomer, unassigned) [Example D-39, N-(((S)-3-((1r,4S)-4-hydroxy-4-methylcyclohexyl)-5-nitro-3,4-dihydro-2H-benzo[b][1,4]oxazin-7-yl)sulfonyl)-4-(2-((R or S)-2-(2-isopropylphenyl)pyrrolidin-1-yl)-7-azaspiro[3.5]nonan-7-yl)-2-((6-methyl-1H-pyrrolo[2,3-b]pyridin-5-yl)oxy)benzamide], the pIC50 was 9.00.
CC(C)c1ccccc1[C@@H]1CCCN1C1CC2(CCN(c3ccc(C(=O)NS(=O)(=O)c4cc5c(c([N+](=O)[O-])c4)N[C@@H]([C@H]4CC[C@](C)(O)CC4)CO5)c(Oc4cc5cc[nH]c5nc4N4CCC4)c3)CC2)C1 (single isomer, unassigned) [Example D-183, 2-((6-(azetidin-1-yl)-1H-pyrrolo [2,3-b]pyridin-5-yl)oxy)-N-(((S)-3-((1r,4S)-4-hydroxy-4-methylcyclohexyl)-5-nitro-3,4-dihydro-2H-benzo[b][1,4]oxazin-7-yl)sulfonyl)-4-(2-((R or S)-2-(2-isopropylphenyl)pyrrolidin-1-yl)-7-azaspiro[3.5]nonan-7-yl)benzamide] was tested, and the pIC50 was 9.00.
Work on COC(=O)N1CCN(C2CC3(CCN(c4ccc(C(=O)NS(=O)(=O)c5cc6c(c([N+](=O)[O-])c5)N[C@@H]([C@H]5CC[C@](C)(O)CC5)CO6)c(Oc5cnc6[nH]cc(F)c6c5)c4)CC3)C2)[C@H](c2ccccc2C(C)C)C1 (single isomer, unassigned) [Example D-144, methyl (R or S)-4-(7-(3-((3-fluoro-1H-pyrrolo [2,3-b]pyridin-5-yl)oxy)-4-((S)-3-((1r,4S)-4-hydroxy-4-methylcyclohexyl)-5-nitro-3,4-dihydro-2H-benzo[b][1,4]oxazin-7-yl)sulfonyl)carbamoyl)phenyl)-7-azaspiro[3.5] nonan-2-yl)-3-(2-isopropylphenyl) piperazine-1-carboxylate] yielded a pIC50 of 9.00.
In the case of CC(C)c1ccccc1[C@@H]1CCCN1C1CC2(CCN(c3ccc(C(=O)NS(=O)(=O)c4cc5c(c([N+](=O)[O-])c4)N[C@@H]([C@H]4CC[C@](C)(O)CC4)CO5)c(Oc4cc5cc[nH]c5nc4OC[C@@H]4CCCN4)c3)CC2)C1 (single isomer, unassigned) [Example D-218, N-(((S)-3-((1r,4S)-4-hydroxy-4-methylcyclohexyl)-5-nitro-3,4-dihydro-2H-benzo[b][1,4]oxazin-7-yl)sulfonyl)-4-(2-((R or S)-2-(2-isopropylphenyl)pyrrolidin-1-yl)-7-azaspiro[3.5]nonan-7-yl)-2-((6-(((S)-pyrrolidin-2-yl)methoxy)-1H-pyrrolo[2,3-b]pyridin-5-yl)oxy)benzamide], the pIC50 was 9.00.
Work on CC(C)c1ccccc1C1CCCN1C1CC2(CCN(c3ccc(C(=O)NS(=O)(=O)c4cc5c(c([N+](=O)[O-])c4)N[C@@H](C4CCC(F)(F)CC4)CO5)c(Oc4cnc5[nH]cc(F)c5c4)c3)CC2)C1 (single isomer, unassigned) [Example D-47, N-(((S)-3-(4,4-difluorocyclohexyl)-5-nitro-3,4-dihydro-2H-benzo [b][1,4]oxazin-7-yl)sulfonyl)-2-((3-fluoro-1H-pyrrolo[2,3-b]pyridin-5-yl)oxy)-4-(2-((R or S)-2-(2-isopropylphenyl)pyrrolidin-1-yl)-7-azaspiro[3.5]nonan-7-yl)benzamide] yielded a pIC50 of 9.00.
Molecule CC(C)c1ccccc1[C@@H]1CCCN1C1CC2(CCN(c3ccc(C(=O)NS(=O)(=O)c4cc5c(c([N+](=O)[O-])c4)N[C@@H](C4CCC(O)CC4)CO5)c(Oc4cnc5[nH]cc(F)c5c4)c3)CC2)C1 (single isomer, unassigned) [Example D-40, 2-((3-fluoro-1H-pyrrolo[2,3-b]pyridin-5-yl)oxy)-N-(((S)-3-((1s,4R)-4-hydroxycyclohexyl)-5-nitro-3,4-dihydro-2H-benzo[b][1,4]oxazin-7-yl)sulfonyl)-4-(2-((R or S)-2-(2-isopropylphenyl)pyrrolidin-1-yl)-7-azaspiro[3.5]nonan-7-yl)benzamide] has a pIC50 of 9.00.
CC(C)c1ccccc1[C@@H]1CCCN1C1CC2(CCN(c3ccc(C(=O)NS(=O)(=O)c4cc5c(c([N+](=O)[O-])c4)N[C@@H]([C@H]4CC[C@](C)(O)CC4)CO5)c(Oc4cc5cc[nH]c5nc4N4CCOCC4)c3)CC2)C1 (single isomer, unassigned) [Example D-57, N-(((S)-3-((1r,4S)-4-hydroxy-4-methylcyclohexyl)-5-nitro-3,4-dihydro-2H-benzo[b][1,4]oxazin-7-yl)sulfonyl)-4-(2-((R or S)-2-(2-isopropylphenyl)pyrrolidin-1-yl)-7-azaspiro[3.5]nonan-7-yl)-2-((6-morpholino-1H-pyrrolo [2,3-b]pyridin-5-yl)oxy)benzamide] was tested, and the pIC50 was 9.00.
For CC(C)c1ccccc1[C@@H]1CCCN1C1CC2(CCN(c3ccc(C(=O)NS(=O)(=O)c4cc5c(c([N+](=O)[O-])c4)N[C@@H]([C@H]4CC[C@](C)(O)CC4)CO5)c(Oc4cc5cc[nH]c5nc4OC[C@@H]4COCCN4C(=O)OC(C)(C)C)c3)CC2)C1 (single isomer, unassigned) [Example D-215, tert-butyl (S)-3-(((5-(2-((((S)-3-((1r,4S)-4-hydroxy-4-methylcyclohexyl)-5-nitro-3,4-dihydro-2H-benzo[b][1,4]oxazin-7-yl)sulfonyl)carbamoyl)-5-(2-((R or S)-2-(2-isopropylphenyl)pyrrolidin-1-yl)-7-azaspiro[3.5]nonan-7-yl)phenoxy)-1H-pyrrolo[2,3-b]pyridin-6-yl)oxy)methyl) morpholine-4-carboxylate], the pIC50 was 9.00.

Same assay, conditions: Homo sapiens, Toledo, read-out: Toledo IC50 (nM)
CC(C)c1ccccc1[C@@H]1CCCN1C1CC2(CCN(c3ccc(C(=O)NS(=O)(=O)c4ccc(NC[C@H]5CC[C@](C)(O)CC5)c([N+](=O)[O-])n4)c(Oc4cnc5[nH]ccc5c4)c3)CC2)C1 (single isomer, unassigned) [Example C-2, 2-((1H-pyrrolo[2,3-b]pyridin-5-yl)oxy)-N-((5-((((1r,4r)-4-hydroxy-4-methylcyclohexyl)methyl)amino)-6-nitropyridin-2-yl)sulfonyl)-4-(2-((R or S)-2-(2-isopropylphenyl)pyrrolidin-1-yl)-7-azaspiro[3.5]nonan-7-yl)benzamide] was tested, and the IC50 was 1 nM.
